Assay results as given in patent publication US20010034342A1, “Substituted urea and isothiourea derivatives as no synthase inhibitors” (priority 1993, published 2001).
Structures can show the parent of a compound that is named as a salt. Where two headings read alike, the source gives them in different places.

What was measured:
Format in all cases: biochemical
[1] = target: T1, inducible human NOS (Homo sapiens, UniProt P35228); experiment: Assay for inducible human NOS (citrulline formation), enzyme from cytokine-induced DLD-1 cells; settings: for inhibition at 25 µM: @ 25 μM inhibitor, read-out: Human Inducible, percent (inhibition) @ 25 μM
T1 construct: Purification of NOS cytokine-induced human colorectal adenocarcinoma DLD-1 cells; endogenous in cells; host or cells: DLD-1 (ATCC No. CCL 221), induced with IFN-gamma, IL-6, TNF and IL-1beta
Protocol: (§1) NOS was assayed for the formation of citrulline following the procedure of Schmidt et al (PNAS 88 365-369, 1991) with these modifications: 20 mM Hepes, pH 7.4, 10 μg/ml calmodulin, 2.5 mM CaCl2 2.5 mM DTT, 125 μM NADPH 10 μM H4 Biopterin, 0.5 mg/ml BSA, and 1 μM L-[14C] arginine (New England Nuclear). Linearity of NOS-catalyzed rate was confirmed prior to kinetic studies that used single tine point determination of rate.
DLD-1 (ATCC No. CCL 221) were grown at 37° C., 5% CO2 in RPMI 1640 medium supplemented with L-glutamin, penicillin, streptomycin, and 10% heat-inactivated fetal bovine serum. Cells were grown to confluency and then the following cocktail of cytokines were added: 100 units/ml interferon-gamma, 200 units/ml interleukin-6, 10 ng/ml tumor necrosis factor, and 0.5 ng/mil interleukin-1β. At 10-24 hr post-induction, cells were harvested by scraping and washed with phosphate-buffered saline. Pelleted cells were stored at −70° C. Purification of the induced NOS was performed at 4° C. Crude extract was prepared by three cycles of freeze/thawing cells in TDGB (20 mM tris pH 7.5, 10% glycerol, 1 mM DTT, 2 μM tetrahydrobiopterin). Extract was applied directly onto a column of 2′,5′ ADP sepharse (Pharmacia). Resin was sequentially washed with TDGB, 0.5 M NaCl in TDGB, TDGB. NOS was eluted with 2 mM NADPH in TDGB. BSA was immediately added to give a final concentration of 1 mg/ml. NOS could be quick frozen and stored at −70° C. without loss in activity for at least 2 months.
Assay for inducible human NOS.
The formation of citrulline was assayed as described above except that 10 μM FAD was included and calmodulin and CaCl2 were excluded from the assay mix.

[2] = target: T2, Human brain NOS (Homo sapiens, UniProt P29475); experiment: Human brain NOS enzyme activity assay; settings: for Ki: isolated enzyme from human brain
T2 construct: Purification of NOS from human brain; from tissue; host or cells: frozen human brain
Protocol: The mixture was centrifuged at 13,000 g for 1 hour and the supernatant was removed (about 2050 ml). […] The precipitate was pelleted at 13,000 g for 30 minutes and the pellet was resuspended in −400 mls of buffer A with 4 μM tetrahydrobiopterin, 1 μm FAD (Sigma), 1 μM FMN (Sigma). The solution was centrifuged at 41,000 g for 60 minutes. The supernatant was removed, frozen by pouring into liquid nitrogen, and stored overnight at −70° C. The mixture was thawed and passed through a 2′,5′ ADP-agarose column (0.4 g swelled in buffer A) at 4 ml/min. The column was washed with 100 ml buffer A, 200 ml buffer A with 500 mM NaCl, 100 ml Buffer A, then 30 ml buffer A with 5 mM NADPH. […] To the enzyme was added tetrahydrobiopterin to 10 μM, FAD and FMN to 1 μM, and tween to 0.1%. This solution was concentrated by centriprep-30 to a volume of approximately 500 μl. Human NOS was prepared completely analogously except the calmodulin-agarose column was not used.

[3] = target: T3, human placental NOS (Homo sapiens, UniProt P29474); experiment: Assay for human placental NOS (citrulline formation); settings: for inhibition at 25 µM: @ 25 μM inhibitor, read-out: Human Placental, percent (inhibition) @ 25 μM
T3 construct: Purification of NOS from human placenta; from tissue; host or cells: fresh human placenta
Protocol: as §1

[4] = isolated enzyme from DLD-1 cells, read-out: Human Inducible Ki/μM
[5] = isolated enzyme from human placenta, read-out: Human Placental Ki/μM
[6] = from percent inhibition at three or more concentrations at a single time point, assuming competitive inhibition with respect to arginine, read-out: Human Placental Ki/μM (footnote b)
[7] = from percent inhibition at three or more concentrations at a single time point, assuming competitive inhibition with respect to arginine, read-out: Human Inducible Ki/μM (footnote b)

T3 sequence (P29474 2-1203): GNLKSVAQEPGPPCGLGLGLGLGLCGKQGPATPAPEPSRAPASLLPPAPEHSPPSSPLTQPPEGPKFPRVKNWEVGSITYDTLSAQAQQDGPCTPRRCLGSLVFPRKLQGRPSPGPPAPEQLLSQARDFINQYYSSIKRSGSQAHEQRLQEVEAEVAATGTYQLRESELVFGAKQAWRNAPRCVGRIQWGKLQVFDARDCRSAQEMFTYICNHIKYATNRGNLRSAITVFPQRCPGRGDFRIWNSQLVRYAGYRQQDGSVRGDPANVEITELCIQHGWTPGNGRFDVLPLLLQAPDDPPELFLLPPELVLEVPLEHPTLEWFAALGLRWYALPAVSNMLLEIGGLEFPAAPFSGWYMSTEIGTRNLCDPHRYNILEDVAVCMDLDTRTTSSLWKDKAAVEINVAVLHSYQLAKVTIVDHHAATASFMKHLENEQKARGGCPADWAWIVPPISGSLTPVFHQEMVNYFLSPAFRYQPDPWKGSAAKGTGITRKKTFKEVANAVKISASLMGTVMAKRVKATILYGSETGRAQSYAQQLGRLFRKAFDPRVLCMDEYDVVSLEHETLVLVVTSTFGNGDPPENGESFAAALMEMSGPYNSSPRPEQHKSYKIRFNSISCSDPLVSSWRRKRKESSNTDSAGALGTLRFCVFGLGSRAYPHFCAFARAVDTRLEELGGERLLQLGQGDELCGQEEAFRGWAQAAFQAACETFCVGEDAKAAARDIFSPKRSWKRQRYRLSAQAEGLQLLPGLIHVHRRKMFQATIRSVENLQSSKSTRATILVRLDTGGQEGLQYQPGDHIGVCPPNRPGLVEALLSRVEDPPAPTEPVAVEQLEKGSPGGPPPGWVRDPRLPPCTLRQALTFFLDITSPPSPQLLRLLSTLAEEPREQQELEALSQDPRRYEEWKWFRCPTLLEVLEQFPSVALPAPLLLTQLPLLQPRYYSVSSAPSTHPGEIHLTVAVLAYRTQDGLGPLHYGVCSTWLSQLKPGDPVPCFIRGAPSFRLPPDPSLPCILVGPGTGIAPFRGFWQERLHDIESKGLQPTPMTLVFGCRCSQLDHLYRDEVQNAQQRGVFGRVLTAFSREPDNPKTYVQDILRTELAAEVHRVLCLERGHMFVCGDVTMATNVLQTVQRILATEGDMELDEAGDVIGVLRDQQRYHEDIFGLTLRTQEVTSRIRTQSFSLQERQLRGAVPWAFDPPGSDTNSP
T2 sequence (P29475 whole entry): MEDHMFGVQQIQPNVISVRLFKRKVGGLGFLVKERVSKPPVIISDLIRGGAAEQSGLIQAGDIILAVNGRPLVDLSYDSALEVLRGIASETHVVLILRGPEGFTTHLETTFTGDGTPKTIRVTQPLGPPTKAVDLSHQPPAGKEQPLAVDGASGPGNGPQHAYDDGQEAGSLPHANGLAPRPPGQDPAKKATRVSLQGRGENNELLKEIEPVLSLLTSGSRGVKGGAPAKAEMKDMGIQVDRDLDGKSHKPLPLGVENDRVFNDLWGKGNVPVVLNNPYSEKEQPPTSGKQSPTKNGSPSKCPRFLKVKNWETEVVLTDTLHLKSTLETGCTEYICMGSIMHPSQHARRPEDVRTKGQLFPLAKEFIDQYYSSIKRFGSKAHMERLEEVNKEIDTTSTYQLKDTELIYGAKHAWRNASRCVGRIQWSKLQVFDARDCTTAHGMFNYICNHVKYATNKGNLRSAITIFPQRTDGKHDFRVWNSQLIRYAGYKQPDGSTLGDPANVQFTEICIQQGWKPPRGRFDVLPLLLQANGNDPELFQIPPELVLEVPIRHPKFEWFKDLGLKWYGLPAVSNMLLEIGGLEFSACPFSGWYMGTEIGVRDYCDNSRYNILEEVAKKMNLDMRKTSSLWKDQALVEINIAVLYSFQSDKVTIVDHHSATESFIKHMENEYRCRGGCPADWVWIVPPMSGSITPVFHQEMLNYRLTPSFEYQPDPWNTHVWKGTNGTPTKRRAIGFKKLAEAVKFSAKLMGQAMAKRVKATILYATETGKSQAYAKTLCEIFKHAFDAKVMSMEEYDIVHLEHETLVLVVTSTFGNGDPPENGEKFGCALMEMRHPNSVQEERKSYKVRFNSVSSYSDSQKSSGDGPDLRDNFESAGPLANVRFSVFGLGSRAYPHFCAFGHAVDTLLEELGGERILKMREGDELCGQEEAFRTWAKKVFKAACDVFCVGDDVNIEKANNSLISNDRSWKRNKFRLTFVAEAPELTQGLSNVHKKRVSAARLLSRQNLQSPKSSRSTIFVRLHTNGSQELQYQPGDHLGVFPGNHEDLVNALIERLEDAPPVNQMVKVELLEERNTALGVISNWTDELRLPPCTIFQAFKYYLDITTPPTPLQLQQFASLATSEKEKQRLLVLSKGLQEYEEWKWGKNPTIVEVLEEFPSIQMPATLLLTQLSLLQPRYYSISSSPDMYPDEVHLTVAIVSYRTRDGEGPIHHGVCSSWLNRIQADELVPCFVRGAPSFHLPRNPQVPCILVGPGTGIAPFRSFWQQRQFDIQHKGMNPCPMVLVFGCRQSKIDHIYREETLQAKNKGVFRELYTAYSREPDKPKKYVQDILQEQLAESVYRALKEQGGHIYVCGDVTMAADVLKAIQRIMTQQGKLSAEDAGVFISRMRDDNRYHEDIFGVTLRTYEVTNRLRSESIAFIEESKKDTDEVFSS
T1 sequence (P35228 whole entry): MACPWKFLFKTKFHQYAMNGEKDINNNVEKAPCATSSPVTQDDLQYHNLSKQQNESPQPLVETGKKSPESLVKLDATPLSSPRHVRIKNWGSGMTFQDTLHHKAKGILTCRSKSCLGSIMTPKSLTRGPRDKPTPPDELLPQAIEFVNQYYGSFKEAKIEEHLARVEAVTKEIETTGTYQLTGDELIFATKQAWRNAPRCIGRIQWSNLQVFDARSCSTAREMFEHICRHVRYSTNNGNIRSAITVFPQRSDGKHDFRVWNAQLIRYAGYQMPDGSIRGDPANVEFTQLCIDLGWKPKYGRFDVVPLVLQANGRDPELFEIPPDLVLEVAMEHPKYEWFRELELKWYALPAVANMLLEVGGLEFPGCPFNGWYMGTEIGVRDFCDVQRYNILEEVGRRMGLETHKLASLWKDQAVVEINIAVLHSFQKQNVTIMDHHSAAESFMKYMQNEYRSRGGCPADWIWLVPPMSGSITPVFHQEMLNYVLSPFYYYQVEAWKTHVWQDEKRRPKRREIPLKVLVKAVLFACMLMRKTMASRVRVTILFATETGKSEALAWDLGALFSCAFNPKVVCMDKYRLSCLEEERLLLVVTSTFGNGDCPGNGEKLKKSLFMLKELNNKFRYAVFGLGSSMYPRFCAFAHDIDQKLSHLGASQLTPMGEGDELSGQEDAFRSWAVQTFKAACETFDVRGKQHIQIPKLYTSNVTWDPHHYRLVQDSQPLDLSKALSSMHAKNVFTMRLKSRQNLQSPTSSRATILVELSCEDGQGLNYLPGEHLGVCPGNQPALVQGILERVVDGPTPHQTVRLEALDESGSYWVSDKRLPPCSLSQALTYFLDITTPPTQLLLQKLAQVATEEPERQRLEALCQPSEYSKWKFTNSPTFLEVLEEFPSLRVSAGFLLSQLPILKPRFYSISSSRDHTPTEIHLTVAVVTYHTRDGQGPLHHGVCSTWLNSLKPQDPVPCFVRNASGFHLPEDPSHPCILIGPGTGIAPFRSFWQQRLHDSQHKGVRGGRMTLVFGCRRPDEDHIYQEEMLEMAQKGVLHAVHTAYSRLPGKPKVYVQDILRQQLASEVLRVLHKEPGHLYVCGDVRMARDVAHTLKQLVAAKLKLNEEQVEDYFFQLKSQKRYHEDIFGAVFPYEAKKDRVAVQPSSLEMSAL

Compound	Ki [1, 4]	Ki [2]	Ki [3, 5]	also measured
CC(C)SC(=N)NCCCC[C@H](N)C(=O)O [Example 9D, N^6-(imino(1-methylethylthio)methyl)L-lysine]	22.6 µM	28 µM	23.2 µM	–
CCSC(=N)Nc1ccc(O)cc1 [Example 1I, S-ethyl-N-(4-hydroxyphenyl)isothiourea]	2.5 µM	0.34 µM	2.7 µM	–
CCSC(=N)Nc1ccc(OCc2ccccc2)cc1 [Example 1B, S-ethyl-N-[4-(benzyloxy)phenyl]isothiourea]	6.6 µM	0.21 ± 0.01 µM	2.8 µM	–
CSC(=N)NCc1ccc(CNC(=N)SC)cc1 [Example 7, N,N-((methylthio)iminomethyl)-p-xylylenediamine]	45 µM	3.2 µM	22 µM	–
CCSC(=N)Nc1ccc(C(F)(F)F)cc1 [Example 2, S-ethyl-N-[4-(trifluoromethyl)phenyl]isothiourea hydrochloride]	–	0.32 ± 0.02 µM	9.4 µM	inhibition at 25 µM [1]: 36%
CCSC(=N)Nc1ccc(C(=O)O)cc1 [Example 1D, S-ethyl-N-(4-carboxyphenyl)isothiourea]	–	–	–	Human Inducible, percent (inhibition), concentration not given [1]: 0%; inhibition at 25 µM ([2]; @ 25 μM inhibitor, read-out: Human Brain, percent (inhibition) @ 25 μM): 30%; inhibition at 25 µM [3]: 14%
CCSC(=N)NCc1cccc(CN)c1 [Example 13A, 1-(3-(Aminomethyl)benzyl)S-ethylisothiourea]	0.15 µM	0.9 µM	2.1 µM	–
CSC(=N)NCCCC[C@H](N)C(=O)O [Example 9A, N^6-(imino(methylthio)methyl)L-lysine]	1.7 µM	0.09 µM	4.1 µM	–
CCSC(=N)Nc1ccncc1 [Example 2M, S-Ethyl-N-(4-pyridyl)isothiourea]	23 µM	1 ± 0.2 µM	6.9 µM	–
CCSC(=N)Nc1ccccn1 [Example 1K, S-ethyl-N-(2-pyridyl)isothiourea]	–	4.8 µM	–	inhibition at 25 µM [1]: 48%; inhibition at 25 µM [3]: 48%
CC(C)CSC(=N)NCCCC[C@H](N)C(=O)O [Example 9F, N^6-(imino(2-methylpropylthio)methyl)-L-lysine]	–	61 µM	79 µM	–
N^6-((methylthio)iminomethyl)-D-lysine [Example 9H]	5.3 µM	0.4 µM	1.2 µM	–
CCSC(=N)Nc1cccc(C(=O)O)c1 [Example 1E, S-ethyl-N-(3-carboxyphenyl)isothiourea]	44 µM	–	14 µM	–
CCSC(=N)Nc1ccc(N(C)C)cc1 [Example 1G, S-ethyl-N-(4-dimethylaminophenyl)isothiourea]	29 µM	1.4 ± 0.01 µM	9 µM	–
CCSC(=N)Nc1ccccc1Cl [Example 2G]	2.9 µM	0.17 µM	1.8 µM	–
CCSC(=N)Nc1cccc(C(F)(F)F)c1 [Example 2E, S-Ethyl-N-[3-(trifluoromethyl)phenyl]isothiourea]	3.2 µM	1.1 ± 0.01 µM	28 µM	–
CSC(=N)NCCC[C@H](N)C(=O)O [Example 8]	–	–	–	Ki ([1]; from steady state inhibited rate / control rate, assuming competitive inhibition with respect to arginine, read-out: Human Inducible Ki/μM (footnote a)): 0.034 µM; Kd ([2]; Kd from association and dissociation rate constants for the slow onset of inhibition, read-out: Human Brain Ki/μM (footnote c: value is a Kd)): 0.001 µM; Ki [3, 6]: 0.07 µM
N^5-(iminomethoxymethyl)-L-ornithine dihydrochloride [10^c(i)]	–	–	–	Ki [1, 7]: 0.22 µM; Ki [3, 6]: 0.12 µM
CCSC(=N)Nc1ccc(C2CCCCC2)cc1 [Example 1H, S-ethyl-N-(4-cyclohexylphenyl)isothiourea]	28 µM	1.5 ± 0.07 µM	14 µM	–
CCSC(=N)Nc1ccc(C)cc1 [Example 2I, S-Ethyl-N-(4-methylphenyl)isothiourea]	1.9 µM	0.18 ± 0.04 µM	1 µM	–
CSC(=N)NCc1cccc(CNC(=N)SC)c1 [Example 6, N, N′-((methylthio)iminomethyl)-m-xylylenediamine]	2.3 µM	0.5 µM	17 µM	–
CCSC(=N)Nc1cc(C(F)(F)F)ccc1Cl [Example 2L, S-Ethyl-N-(2-chloro-5-(trifluoromethyl)phenyl)isothiourea]	–	–	–	Human Inducible, percent (inhibition), concentration not given [1]: 20%; Human Brain, percent (inhibition), concentration not given ([2]; concentration not given): 40%; Human Placental, percent (inhibition), concentration not given [3]: 6%
CC(C)CSC(=N)NCCC[C@@H](N)C(=O)O [Example 9M, N^5-((2-methylpropylthio)iminethyl)-D-ornithine]	13 µM	19.5 µM	–	–
CCSC(=N)Nc1ccc(Oc2ccccc2)cc1 [Example 1, S-Ethyl-N-(4-phenoxyphenyl)isothiourea]	3.1 µM	0.19 ± 0.01 µM	4 µM	–
CCSC(=N)Nc1ccc(OC)cc1 [Example 1J, S-ethyl-N-(4-methoxyphenyl)isothiourea]	4.9 µM	0.29 ± 0.04 µM	2.7 µM	–

Compound	Ki [1, 4]	Ki [2]	Ki [3, 5]	also measured
CC(C)SC(=N)NCCC[C@@H](N)C(=O)O [Example 9K]	40 µM	61 µM	30 µM	–
CCSC(=N)Nc1ccc(C(C)C)cc1 [Example 2D, S-Ethyl-N-(4-isopropylphenyl)isothiourea]	–	0.33 µM	7.7 µM	–
CCSC(=N)Nc1cccnc1 [Example 2J, S-Ethyl-N-(3-pyridyl)isothiourea]	–	1 µM	6.9 µM	inhibition at 25 µM [1]: 47%
CCOC(=O)c1ccc(NC(=N)SCC)cc1 [Example 1C, S-ethyl-N-[4-(ethoxycarbonyl)phenyl]isothiourea]	> 25 µM	1.6 µM	12 µM	–
N^6-((methylpropylthio)iminomethyl-D-lysine [Example 9N]	–	61 µM	99 µM	–
CCSC(=N)Nc1ccccc1C(C)C [Example 2C, S-Ethyl-N-(2-isopropylphenyl)isothiourea]	10 µM	1.13 ± 0.02 µM	6.5 µM	–
CCSC(=N)Nc1ccccc1C(F)(F)F [Example 2F, S-Ethyl-N-[2-(trifluoromethyl)phenyl]isothiourea]	22 µM	1.4 ± 0.01 µM	1.8 µM	–
N[C@@H](CCCNC1=NCCS1)C(=O)O [Example 5, N^5-(2-thiazolin-2-yl)-L-ornithine]	3.3 µM	–	5.5 µM	–
CCSC(=N)Nc1ccccc1OC [Example 2H, S-Ethyl-N-(2-methoxyphenyl)isothiourea]	1.4 µM	0.17 ± 0.02 µM	1.6 µM	–
CCSC(=N)Nc1ccc(Cl)c(C(F)(F)F)c1 [Example 2K, S-Ethyl-N-(4-chloro-3-(trifluoromethyl)phenyl)isothiourea]	17 µM	4.2 µM	8.2 µM	–
CSC(=N)NCc1cccc(CN)c1 [Example 13, 1-(3-(Aminomethyl)benzyl)-S-methylisothiourea]	0.69 µM	3 µM	3.3 µM	–
CSC(=N)NCc1ccc(CN)cc1 [Example 14, 1-(4-(Aminomethyl)benzyl)-S-methylisothiourea]	22.6 µM	28 µM	23.2 µM	–
CCOC(=N)NCc1cccc(CN)c1 [Example 12, 1-(3-(Aminomethyl)benzyl)-O-ethylisourea]	1.7 µM	0.09 µM	4.1 µM	–
CC(C)SC(=N)NCCCC[C@@H](N)C(=O)O [Example 9L]	19 µM	108 µM	23 µM	–
CC(C)SC(=N)NCCC[C@H](N)C(=O)O [Example 9C, N^5-(imino(1-methylethylthio)methyl)-L-ornithine]	0.15 µM	0.9 µM	2.1 µM	–
CCSC(=N)Nc1cccc(Cl)c1 [Example 2B, S-Ethyl-N-(3-chlorophenyl)isothiourea]	2.4 µM	0.45 µM	1.8 µM	–
CCSC(=N)Nc1ccccc1Br [Example 1F, S-ethyl-N-(2-bromophenyl)isothiourea]	4.7 µM	0.25 ± 0.02 µM	2 µM	–
N^5-(ethoxyiminomethyl)-L-ornithine dihydrochloride [10^c(ii)]	–	–	–	Ki [1, 7]: 0.1 µM; Ki ([3]; from steady state inhibited rate / control rate, assuming competitive inhibition with respect to arginine, read-out: Human Placental Ki/μM (footnote a)): 0.006 µM
N[C@@H](CCCCNC1=NCCS1)C(=O)O [Example 5A, N^6-(2-thiazolin-2-yl)-L-lysine]	11 µM	–	21 µM	–
CC(C)CSC(=N)NCCC[C@H](N)C(=O)O [Example 9E, N^5-(imino(2-methylpropylthio)methyl)-L-ornithine]	5.3 µM	5.5 µM	14 µM	–
CCSC(=N)Nc1cccc(OC)c1 [Example 1A, S-ethyl-N-(3-methoxyphenyl)isothiourea]	3.2 µM	0.56 ± 0.02 µM	3.1 µM	–
CCSC(=N)NCc1ccc(CN)cc1 [Example 14A, 1-(4-(Aminomethyl)benzyl)-S-ethylisoiourea]	5.3 µM	5.5 µM	14 µM	–
N^6-(ethylthio)iminomethyl-D-lysine [Example 9J]	7 µM	0.56 µM	1.3 µM	–
CCOC(=N)Nc1ccc(C(F)(F)F)cc1 [Example 3A, O-Ethyl-N-(4-(trifluoromethyl)phenyl)isourea]	–	1.9 ± 0.1 µM	–	Human Inducible, percent (inhibition), concentration not given [1]: 12%; Human Placental, percent (inhibition), concentration not given [3]: 35%
